In assay [1] the target is T1, human Cereblon WT GST-tagged protein (Homo sapiens, UniProt Q96SW2).
T1 construct: purchased CISBIO 64BDCRBNPEH
Kind of assay: CRBN-binding affinity, HTRF (CEREBLON BINDING kit). The following applies: for inhibition at 0.5 µM: read-out: Inhibition Rate at 0.5 µM (%); for inhibition at 2 µM: read-out: Inhibition Rate at 2 µM (%). A digest of the protocol:
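Competitive HTRF format: test compounds diluted in diluent #9 (1X) were combined with GST-tagged Cereblon, then a premixed thalidomide-red tracer plus anti-GST europium antibody; final compound concentrations were 2 µM and 0.5 µM. Blank wells received diluent and PROTAC binding buffer instead of compound and protein.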
(Time-resolved FRET reads energy transfer from a long-lived donor to a nearby acceptor.)

The test system of assay [2] is H1975. Briefly: Tumor cell proliferation inhibition (CellTiter-Meiluncell Luminescent Cell Viability Assay). It is filed as cell-based. The following applies: Homo sapiens, 96 hours, Table I-3, EGFR inhibitors; for inhibition at 0.01 µM: NCI-H1975, 10 nM, read-out: Inhibition Rate at 10 nM (%); for inhibition at 0.5 µM: NCI-H1975, 500 nM, read-out: Inhibition Rate at 500 nM (%). The procedure, abridged:
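Luminescent viability read-out (CellTiter-Meiluncell) after compound exposure for a specified time; IC50 determined. Seeding was done the day before dosing with serially diluted compound, final concentrations including 500 nM and 10 nM. Culture at 37°C, 5% CO2.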

The subject of assay [3] is MV-4-11. Described as above. It is filed as cell-based. To be noted: Homo sapiens, 96 hours; for inhibition at 0.01 µM: MV4-11, 10 nM, read-out: Inhibition Rate at 10 nM (%); for inhibition at 0.5 µM: MV4-11, 500 nM, read-out: Inhibition Rate at 500 nM (%). The procedure, abridged: (§1)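 Following overnight seeding, tumor cells received serial compound dilutions to final levels that included 10 nM and 500 nM. Viability was assessed by luminescence at the end of the specified exposure time. Cultures were kept at 37°C with 5% CO2.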

Assay [4] relates to RPMI-8226. Described as above. It is filed as cell-based. The following applies: Homo sapiens, 96 hours, Table I-3, EGFR inhibitors. The procedure, abridged:
as §1

Assay [5] relates to SW620. The description is as above. It is filed as cell-based. To be noted: Homo sapiens, 96 hours, Table I-3, EGFR inhibitors. A digest of the protocol:
as §1

For assay [6], the target named is T2, ALK (Homo sapiens, UniProt Q96SW2+Q9HC35+Q9UM73).
T2 construct: endogenous in cells; host or cells: H2228
T2 sequence (Q9HC35+Q9UM73 fused): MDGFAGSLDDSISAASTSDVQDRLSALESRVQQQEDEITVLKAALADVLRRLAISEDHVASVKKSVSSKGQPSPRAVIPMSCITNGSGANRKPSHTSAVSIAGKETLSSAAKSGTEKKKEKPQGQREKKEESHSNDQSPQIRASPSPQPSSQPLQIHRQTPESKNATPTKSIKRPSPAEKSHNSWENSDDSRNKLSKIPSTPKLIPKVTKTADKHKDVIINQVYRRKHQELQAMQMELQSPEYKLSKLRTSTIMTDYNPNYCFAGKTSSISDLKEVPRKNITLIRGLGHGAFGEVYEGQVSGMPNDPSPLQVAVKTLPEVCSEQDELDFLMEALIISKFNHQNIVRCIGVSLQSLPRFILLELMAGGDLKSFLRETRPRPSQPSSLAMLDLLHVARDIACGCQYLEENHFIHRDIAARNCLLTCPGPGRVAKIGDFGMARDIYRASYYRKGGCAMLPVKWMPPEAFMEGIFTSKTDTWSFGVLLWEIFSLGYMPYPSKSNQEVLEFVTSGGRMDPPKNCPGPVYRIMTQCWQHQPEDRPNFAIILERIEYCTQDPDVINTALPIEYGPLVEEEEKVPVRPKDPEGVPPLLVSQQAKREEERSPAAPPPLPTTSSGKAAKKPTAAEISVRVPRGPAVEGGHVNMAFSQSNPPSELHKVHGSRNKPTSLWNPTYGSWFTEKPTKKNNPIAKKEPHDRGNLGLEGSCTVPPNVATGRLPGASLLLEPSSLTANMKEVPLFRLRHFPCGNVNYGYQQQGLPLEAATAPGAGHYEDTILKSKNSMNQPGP
T2 sequence (Q96SW2 whole entry): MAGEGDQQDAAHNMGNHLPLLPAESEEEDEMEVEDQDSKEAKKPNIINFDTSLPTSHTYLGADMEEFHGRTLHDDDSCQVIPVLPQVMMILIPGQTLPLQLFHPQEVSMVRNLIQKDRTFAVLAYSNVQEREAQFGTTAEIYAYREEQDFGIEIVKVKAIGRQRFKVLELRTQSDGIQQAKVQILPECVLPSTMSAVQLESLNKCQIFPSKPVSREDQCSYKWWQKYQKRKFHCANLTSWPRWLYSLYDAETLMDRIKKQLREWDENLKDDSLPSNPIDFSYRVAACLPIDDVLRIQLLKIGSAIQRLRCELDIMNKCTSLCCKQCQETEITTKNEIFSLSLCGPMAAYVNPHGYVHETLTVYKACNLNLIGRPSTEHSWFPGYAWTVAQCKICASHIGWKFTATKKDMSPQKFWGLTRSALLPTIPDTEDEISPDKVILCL
T2 sequence (Q16531 whole entry partner): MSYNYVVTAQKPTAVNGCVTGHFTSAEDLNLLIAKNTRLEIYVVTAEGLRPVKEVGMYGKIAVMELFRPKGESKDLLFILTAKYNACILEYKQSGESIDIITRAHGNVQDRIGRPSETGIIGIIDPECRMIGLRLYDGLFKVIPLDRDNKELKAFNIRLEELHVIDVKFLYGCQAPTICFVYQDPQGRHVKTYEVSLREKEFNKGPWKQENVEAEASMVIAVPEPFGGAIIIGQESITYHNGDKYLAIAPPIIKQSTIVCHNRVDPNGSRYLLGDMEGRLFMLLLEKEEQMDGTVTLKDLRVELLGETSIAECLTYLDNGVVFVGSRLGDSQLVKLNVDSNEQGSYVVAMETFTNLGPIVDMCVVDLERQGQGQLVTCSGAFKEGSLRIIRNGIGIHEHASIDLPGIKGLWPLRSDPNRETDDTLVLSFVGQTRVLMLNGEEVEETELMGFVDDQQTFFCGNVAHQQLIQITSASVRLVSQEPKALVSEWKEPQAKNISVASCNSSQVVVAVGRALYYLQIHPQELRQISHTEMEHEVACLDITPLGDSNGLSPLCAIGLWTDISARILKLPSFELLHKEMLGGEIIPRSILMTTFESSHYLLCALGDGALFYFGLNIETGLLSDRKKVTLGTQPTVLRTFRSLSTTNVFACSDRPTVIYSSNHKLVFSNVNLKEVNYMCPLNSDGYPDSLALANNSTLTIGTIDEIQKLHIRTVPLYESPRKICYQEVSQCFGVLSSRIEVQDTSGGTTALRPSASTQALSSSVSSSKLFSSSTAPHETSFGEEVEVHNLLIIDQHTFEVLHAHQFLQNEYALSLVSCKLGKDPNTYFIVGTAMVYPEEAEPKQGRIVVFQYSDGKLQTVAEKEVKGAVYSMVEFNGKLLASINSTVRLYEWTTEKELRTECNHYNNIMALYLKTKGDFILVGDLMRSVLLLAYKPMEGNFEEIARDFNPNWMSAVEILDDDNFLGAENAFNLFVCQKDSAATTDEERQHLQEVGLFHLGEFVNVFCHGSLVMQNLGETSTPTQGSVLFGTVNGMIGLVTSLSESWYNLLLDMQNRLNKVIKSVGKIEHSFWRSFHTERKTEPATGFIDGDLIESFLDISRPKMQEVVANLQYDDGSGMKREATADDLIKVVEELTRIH
Briefly: Western blot, target protein degradation in H2228 Cell. It is filed as cell-based. To be noted: substrate protein remaining %, treated at 500 nM and 50 nM, 24 hours. The method, then:
(§2) Conventional Western blot assay was performed to evaluate the effects of the compounds of the present disclosure on the expression of target proteins in cells.
(§3) (1) Cell Seeding and Protein Harvesting: The selected cells were processed according to the cell seeding procedure and protein harvesting procedure in Table II-2. Table II-2 Cell Seeding and Protein Harvesting Procedures
(§4) (2) To the collected supernatant, 5X SDS sample loading buffer was added, followed by denaturation at 95°C for 5 minutes. The denatured samples were then separated by SDS-PAGE electrophoresis on a polyacrylamide gel. Proteins were transferred to a nitrocellulose membrane (0.45 µm NC membrane), blocked with blocking buffer at room temperature for 1 hour, and subjected to antibody incubation and development procedures according to the antibody manufacturer's instructions (Cell Signaling Technology).
(§5) Half-Maximal Degradation Concentration value (the drug concentration required for degrading proteins by 50%, abbreviated as DC50) reads method: comparing the grayscale values of Western blot bands from drug-treated samples with those from blank DMSO-treated controls, and identifying the drug concentration range at which the grayscale value is half that of the DMSO-treated control bands.
(§6) DC50 values can be calculated using ImageJ software to measure grayscale values of Western blot bands from drug-treated samples. The concentration-response curve is fitted to estimate the drug concentration corresponding to half the grayscale value.
(§7) Target protein remaining (%) refers to the percentage of target protein remaining in cells after treatment with protein degrader compounds.
(§8) Calculation method for target protein remaining (%): Use ImageJ software to measure grayscale values of Western blot bands from drug (protein degrader)-treated samples. The grayscale value of drug-treated bands is divided by that of internal control protein bands, and the resulting quotient is normalized to obtain the relative percentage of remaining target protein after protein degrader treatment. Target protein degradation rate(%) = 1−target protein remaining(%). [formula]

The subject of assay [7] is MM.1S. Kind of assay: Tumor cell proliferation inhibition (CellTiter-Meiluncell Luminescent Cell Viability Assay). Type of assay: cell-based. The following applies: Homo sapiens, MM1.S, MM.1S, 96 hours; for inhibition at 0.01 µM: 10 nM, read-out: Inhibition Rate at 10 nM (%); for inhibition at 0.5 µM: 500 nM, read-out: Inhibition Rate at 500 nM (%). The procedure, abridged:
as §1

In assay [8] the target is T3, CDK9 (Homo sapiens, UniProt P50750).
T3 construct: endogenous in cells; host or cells: MDA-MB-231
T3 sequence (P50750 whole entry): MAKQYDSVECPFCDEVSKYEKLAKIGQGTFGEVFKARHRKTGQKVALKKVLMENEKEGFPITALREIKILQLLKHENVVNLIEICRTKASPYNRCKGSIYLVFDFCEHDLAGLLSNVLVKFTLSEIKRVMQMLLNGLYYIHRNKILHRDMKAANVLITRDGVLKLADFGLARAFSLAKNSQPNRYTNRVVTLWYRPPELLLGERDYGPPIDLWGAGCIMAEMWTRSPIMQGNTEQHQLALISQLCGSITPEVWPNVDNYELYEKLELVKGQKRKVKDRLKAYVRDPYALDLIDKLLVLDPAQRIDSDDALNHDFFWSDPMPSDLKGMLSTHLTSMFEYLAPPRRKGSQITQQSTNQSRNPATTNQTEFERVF
Briefly: Western blot, target protein degradation in MDA-MB-231 Cell. Type of assay: cell-based. The following applies: substrate protein remaining %, treated at 500 nM and 50 nM, 24 hours. As to the method: as §2, §3, §4, §5, §6, §7, §8

The values that follow come from patent publication EP4745138A1, “THIO-GLUTARIMIDO ISOINDOLINONE DERIVATIVE, BIFUNCTIONAL PROTEIN DEGRADER CONTAINING SAME, AND USES THEREOF” (Gluetacs Therapeutics (Shanghai) Co., Ltd., priority 2023, dated 2025).

Read-outs that look alike come from different tables or passages of the source.

T1 sequence (Q96SW2 whole entry): as the sequence (Q96SW2 whole entry) above

As usually defined, the inhibition is the share of the control response that was lost under treatment. As for `O=C1CCC(N2Cc3cc(CN4C[C@H]5C[C@@H]4CN5c4ccc(-c5cc(F)c6c(c5)C(=O)N(C(C(=O)Nc5nccs5)c5ncn7c5CCC7)C6)cc4)ccc3C2=S)C(=O)N1` (stereo partly drawn) [GT-08757, 2-(6,7-dihydro-5H-pyrrolo[1,2-c]imidazol-1-yl)-2-(6-(4-((1R,4R)-5-((2-(2,6-dioxopiperidin-3-yl)-1-thioxoisoindolin-5-yl)methyl)-2,5-diazabicyclo[2.2.1]heptan-2-yl)phenyl)-4-fluoro-1-oxoisoindolin-2-yl)-N-(thiazol-2-vl)acetamide], in assay [1], the inhibition at 0.5 µM lay in the range of 53 to 60% and the inhibition at 2 µM was in the range of 60 to 80%. In addition, in assay [2], the inhibition at 0.01 µM was 20 to 30% and the inhibition at 0.5 µM fell in the range of 50 to 60%.
For `C#Cc1cccc(Nc2ncnc3cc(OCCOC)c(OCCOC)cc23)c1` [erlotinib, Erlotinib, reference compound], the inhibition at 0.01 µM in assay [3] (Table I-3, EGFR inhibitors) was 0 to 5%; in assay [2] it was 0 to 5%; in assay [4] (10 nM, read-out: Inhibition Rate at 10 nM (%)), 20 to 30%; in assay [5] (SW-620, 10 nM, read-out: Inhibition Rate at 10 nM (%)), 10 to 20%. For the same compound, the inhibition at 0.5 µM is 10 to 20% in assay [3] (Table I-3, EGFR inhibitors); 0 to 5% in assay [2]; 20 to 30% in assay [4] (500 nM, read-out: Inhibition Rate at 500 nM (%)); 10 to 20% in assay [5] (SW-620, 500 nM, read-out: Inhibition Rate at 500 nM (%)).
With `COc1cc(N2CCC(N(C)Cc3ccc4c(c3)C(=S)N(C3CCC(=O)NC3=O)C4)CC2)ccc1Nc1ncc(Cl)c(Nc2ccccc2P(C)(C)=O)n1` (stereo not shown) [GT-08680, 3-(6-(((1-(4-((5-chloro-4-((2-(dimethylphosphoryl)phenyl)amino)pyrimidin-2-yl)amino)-3-methoxyphenyl)piperidin-4-yl)(methyl)amino)methyl)-1-thioxoisoindolin-2-yl)piperidine-2,6-dione], in assay [6], the “Degradation of substrate protein ALK” value is recorded as “A (0% ≤ substrate protein remaining % ≤ 80%)”. For the same compound, in assay [1], the inhibition at 0.5 µM fell in the range of 60 to 80% and the inhibition at 2 µM lay in the range of 80 to 100%. Besides, in assay [3] (Table I-2, ALK inhibitors), the inhibition at 0.01 µM was 10 to 20% and the inhibition at 0.5 µM was 60 to 70%. Also, in assay [7] (Table I-2, ALK inhibitors), the inhibition at 0.01 µM was 0 to 10% and the inhibition at 0.5 µM was in the range of 50 to 60%.
Regarding `Cn1ncc(-c2nc(NC3CCN(Cc4cccc5c4CN(C4CCC(=O)NC4=O)C5=S)CC3)ncc2Cl)c1CC1CC1` (stereo not shown) [GT-08686, 3-(4-((4-((5-chloro-4-(5-(cyclopropylmethyl)-1-methyl-1H-pyrazol-4-yl)pyrimidin-2-yl)amino)piperidin-1-yl)methyl)-1-thioxoisoindolin-2-yl)piperidine-2,6-dione], in assay [1], the inhibition at 0.5 µM was 53 to 60% and the inhibition at 2 µM lay in the range of 80 to 100%. Also, in assay [3] (Table I-7, CDK9 inhibitors), the inhibition at 0.01 µM lay within 50 to 60% and the inhibition at 0.5 µM lay within 80 to 100%. For the same compound, in assay [7] (Table I-7, CDK9 inhibitors), the inhibition at 0.01 µM was 0 to 5% and the inhibition at 0.5 µM lay within 80 to 100%. For the same compound, the “Degradation of substrate protein CDK9” value in assay [8] is reported as “A (0% ≤ substrate protein remaining % ≤ 80%)”.
As for `O=C1CCC(N2Cc3c(CN4CCN(c5ccc(CC(=O)Nc6cc(C7CCC7)[nH]n6)cc5)CC4)cccc3C2=S)C(=O)N1` (stereo not shown) [GT-08688, N-(5-cyclobutyl-1H-pyrazol-3-yl)-2-(4-(4-((2-(2,6-dioxopiperidin-3-yl)-1-thioxoisoindolin-4-yl)methyl)piperazin-1-yl)phenyl)acetamide], in assay [1], the inhibition at 0.5 µM was in the range of 60 to 80% and the inhibition at 2 µM is 80 to 100%. In assay [3] (Table I-7, CDK9 inhibitors), the inhibition at 0.01 µM is 40 to 50% and the inhibition at 0.5 µM was in the range of 50 to 60%. In addition, the “Degradation of substrate protein CDK9” value in assay [8] is “A (0% ≤ substrate protein remaining % ≤ 80%)”.
Regarding `Cn1ncc(-c2nc(NC3CCN(Cc4ccc5c(c4)CN(C4CCC(=O)NC4=O)C5=S)CC3)ncc2Cl)c1CC1CC1` (stereo not shown) [GT-08682, 3-(5-((4-((5-chloro-4-(5-(cyclopropylmethyl)-1-methyl-1H-pyrazol-4-yl)pyrimidin-2-yl)amino)piperidin-1-yl)methyl)-1-thioxoisoindolin-2-yl)piperidine-2,6-dione], in assay [1], the inhibition at 0.5 µM lay in the range of 60 to 80% and the inhibition at 2 µM was 80 to 100%. Moreover, in assay [3] (Table I-7, CDK9 inhibitors), the inhibition at 0.01 µM is 30 to 40% and the inhibition at 0.5 µM lay within 60 to 70%. Further, in assay [7] (Table I-7, CDK9 inhibitors), the inhibition at 0.01 µM lay within 10 to 20% and the inhibition at 0.5 µM fell in the range of 50 to 60%. In assay [8], the “Degradation of substrate protein CDK9” value is recorded as “A (0% ≤ substrate protein remaining % ≤ 80%)”.
With `O=C1CCC(N2Cc3c(CN4C[C@H]5C[C@@H]4CN5c4ccc(-c5cc(F)c6c(c5)C(=O)N(C(C(=O)Nc5nccs5)c5ncn7c5CCC7)C6)cc4)cccc3C2=S)C(=O)N1` (stereo partly drawn) [GT-08760, 2-(6,7-dihydro-5H-pyrrolo[1,2-c]imidazol-1-yl)-2-(6-(4-((1R,4R)-5-((2-(2,6-dioxopiperidin-3-yl)-1-thioxoisoindolin-4-yl)methyl)-2,5-diazabicyclo[2.2.1]heptan-2-yl)phenyl)-4-fluoro-1-oxoisoindolin-2-yl)-N-(thiazol-2-yl)acetamide], in assay [1], the inhibition at 0.5 µM was 30 to 40% and the inhibition at 2 µM fell in the range of 53 to 60%. In assay [2], the inhibition at 0.01 µM was in the range of 20 to 30% and the inhibition at 0.5 µM lay within 50 to 60%.
As to `N#CC1(CNc2cccc(-c3cc(NC4CCN(Cc5ccc6c(c5)C(=S)N(C5CCC(=O)NC5=O)C6)CC4)ncc3Cl)n2)CCOCC1` (stereo not shown) [GT-08752, 4-(((5'-chloro-2'-((1-((2-(2,6-dioxopiperidin-3-yl)-3-thioxoisoindolin-5-yl)methyl)piperidin-4-yl)amino)-[2,4'-bipyridin]-6-yl)amino)methyl)tetrahy dro-2H-pyran-4-carbonitrile], in assay [1], the inhibition at 0.5 µM is 53 to 60% and the inhibition at 2 µM was 80 to 100%. For the same compound, in assay [3] (Table I-7, CDK9 inhibitors), the inhibition at 0.01 µM was 10 to 20% and the inhibition at 0.5 µM fell in the range of 70 to 80%. Also, the “Degradation of substrate protein CDK9” value in assay [8] is listed as “A (0% ≤ substrate protein remaining % ≤ 80%)”.
On the same counts, the results for `N#CC1(CNc2cccc(-c3cc(NC4CCN(Cc5ccc6c(c5)CN(C5CCC(=O)NC5=O)C6=S)CC4)ncc3Cl)n2)CCOCC1` (stereo not shown) [GT-08683, 4-(((5'-chloro-2'-((1-((2-(2,6-dioxopiperidin-3-yl)-1-thioxoisoindolin-5-yl)methyl)piperidin-4-yl)amino)-[2,4'-bipyridin]-6-yl)amino)methyl)tetrahy dro-2H-pyran-4-carbonitrile] are 40 to 53%, 80 to 100%, 50 to 60%, 50 to 60% and “A (0% ≤ substrate protein remaining % ≤ 80%)”.
